The subject of assay [1] is Tyk2-pSTAT4 (IL-12 induced pSTAT4). The assay is described as follows: IL-12 induced pSTAT4 in human PBMC. The assay is classed as cell-based. Particulars: 1.7 ng/mL IL-12, 30 minutes. An outline of the steps: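 pSTAT4 and total STAT4 quantified by MSD in cell lysates after 30 minutes of 1.7 ng/mL IL-12 stimulation. Beforehand, compound (0.1% DMSO final) sat 1 hr at 37 C on 200,000 thawed buffy-coat PBMC per well in serum-containing medium.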

Another assay deals with TYK2 (Homo sapiens (Human), UniProt P29597). The assay is described as follows: Tyk2 radioactive kinase assay. It counts as biochemical. The settings on record: ATP 10 μM. In outline:
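Recombinant human TYK2 (Invitrogen) was mixed with 20 μM peptide substrate in a buffer of 20 mM Hepes pH 7.5, 10 mM MgCl2, 1 mM EGTA, 0.02% Brij35, 0.02 mg/mL BSA, 0.1 mM […], 2 mM DTT and 1% DMSO, and compounds in DMSO were added. Adding ^33P-ATP (10 μM ATP) started the reaction, which ran 120 min at room temperature. Mixtures were then spotted onto P81 ion-exchange paper, washed thoroughly in 0.75% phosphoric acid, and counted for radioactivity.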

Assay [2] concerns JAK2-pSTAT5 (GM-CSF induced pSTAT5). Description: GM-CSF induced pSTAT5 in human PBMC. The assay is classed as cell-based. Particulars: Homo sapiens, PBMC, 20 min, 5 ng/mL GM-CSF. How it is done: Human PBMC are isolated from buffy coat and are stored frozen for assays as needed. Cells for assay are thawed and resuspended in complete media containing serum, then cells are diluted to 1.67 E6 cells/ml so that 120 ul per well is 200,000 cells. 15 ul of compound or DMSO is added to the well at the desired concentrations and incubated at 1 hr at 37 C. 15 ul of stimulus (final concentration of 1.7 ng/mL IL-12) is added for 30 minutes prior to pSTAT4 and total STAT4 analysis using cell lysates prepared and analyzed by MSD reagents as per manufacturer protocol. The final DMSO concentration of compound in the assay is 0.1%.
Cells are prepared for analysis as in the above procedure and 15 ul of GM-CSF (final concentration 5 ng/mL) is added for 20 minutes prior to pSTAT5 and total STAT5 analysis using cell lysates prepared and analyzed by MSD reagents as per manufacturer protocol. The final DMSO concentration of compound in the assay is 0.1%.

A further assay addresses JAK2 (Homo sapiens (Human), UniProt O60674). Description: JAK2 radioactive kinase assay. The assay is classed as biochemical. Particulars: ATP 10 μM. In outline: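 Radiometric assay in Hepes pH 7.5, MgCl2, EGTA, Brij35, BSA, DTT, 1% DMSO, with 10 μM [33P]ATP, 120 min at room temp; P81 paper capture and counting. […]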

Each structure is given as a SMILES string.

Sequence of TYK2 (P29597 whole entry): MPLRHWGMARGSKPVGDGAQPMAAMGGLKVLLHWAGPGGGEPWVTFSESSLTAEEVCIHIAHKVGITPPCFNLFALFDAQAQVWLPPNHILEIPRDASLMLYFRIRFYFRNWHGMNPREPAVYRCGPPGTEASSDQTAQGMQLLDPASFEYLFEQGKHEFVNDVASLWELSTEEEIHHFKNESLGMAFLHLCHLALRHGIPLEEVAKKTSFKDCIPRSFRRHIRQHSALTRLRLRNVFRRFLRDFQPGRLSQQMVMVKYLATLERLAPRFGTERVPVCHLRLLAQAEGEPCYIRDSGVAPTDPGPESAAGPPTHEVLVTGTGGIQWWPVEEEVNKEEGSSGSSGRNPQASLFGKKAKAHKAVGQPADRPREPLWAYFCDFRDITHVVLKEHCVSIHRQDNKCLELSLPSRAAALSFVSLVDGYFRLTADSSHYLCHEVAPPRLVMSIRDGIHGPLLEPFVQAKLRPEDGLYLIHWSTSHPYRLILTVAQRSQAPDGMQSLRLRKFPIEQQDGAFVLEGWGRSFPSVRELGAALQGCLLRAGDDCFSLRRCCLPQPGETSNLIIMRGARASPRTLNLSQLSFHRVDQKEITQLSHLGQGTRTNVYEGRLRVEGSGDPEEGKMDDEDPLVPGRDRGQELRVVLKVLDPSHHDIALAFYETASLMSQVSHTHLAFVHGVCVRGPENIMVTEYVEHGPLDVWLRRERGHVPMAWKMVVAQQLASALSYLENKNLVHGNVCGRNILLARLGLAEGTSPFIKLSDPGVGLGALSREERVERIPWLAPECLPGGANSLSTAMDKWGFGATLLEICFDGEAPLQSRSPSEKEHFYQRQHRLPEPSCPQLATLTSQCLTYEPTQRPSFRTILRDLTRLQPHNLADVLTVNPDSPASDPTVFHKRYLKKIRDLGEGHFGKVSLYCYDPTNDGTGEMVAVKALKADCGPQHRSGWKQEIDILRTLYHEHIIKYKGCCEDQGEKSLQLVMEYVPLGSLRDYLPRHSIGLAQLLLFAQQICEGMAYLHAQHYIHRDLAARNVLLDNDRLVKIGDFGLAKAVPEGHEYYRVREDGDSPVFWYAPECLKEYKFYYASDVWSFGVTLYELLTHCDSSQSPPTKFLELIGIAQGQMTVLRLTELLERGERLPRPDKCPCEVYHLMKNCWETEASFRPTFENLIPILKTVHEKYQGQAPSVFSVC
Sequence of JAK2 (O60674 whole entry): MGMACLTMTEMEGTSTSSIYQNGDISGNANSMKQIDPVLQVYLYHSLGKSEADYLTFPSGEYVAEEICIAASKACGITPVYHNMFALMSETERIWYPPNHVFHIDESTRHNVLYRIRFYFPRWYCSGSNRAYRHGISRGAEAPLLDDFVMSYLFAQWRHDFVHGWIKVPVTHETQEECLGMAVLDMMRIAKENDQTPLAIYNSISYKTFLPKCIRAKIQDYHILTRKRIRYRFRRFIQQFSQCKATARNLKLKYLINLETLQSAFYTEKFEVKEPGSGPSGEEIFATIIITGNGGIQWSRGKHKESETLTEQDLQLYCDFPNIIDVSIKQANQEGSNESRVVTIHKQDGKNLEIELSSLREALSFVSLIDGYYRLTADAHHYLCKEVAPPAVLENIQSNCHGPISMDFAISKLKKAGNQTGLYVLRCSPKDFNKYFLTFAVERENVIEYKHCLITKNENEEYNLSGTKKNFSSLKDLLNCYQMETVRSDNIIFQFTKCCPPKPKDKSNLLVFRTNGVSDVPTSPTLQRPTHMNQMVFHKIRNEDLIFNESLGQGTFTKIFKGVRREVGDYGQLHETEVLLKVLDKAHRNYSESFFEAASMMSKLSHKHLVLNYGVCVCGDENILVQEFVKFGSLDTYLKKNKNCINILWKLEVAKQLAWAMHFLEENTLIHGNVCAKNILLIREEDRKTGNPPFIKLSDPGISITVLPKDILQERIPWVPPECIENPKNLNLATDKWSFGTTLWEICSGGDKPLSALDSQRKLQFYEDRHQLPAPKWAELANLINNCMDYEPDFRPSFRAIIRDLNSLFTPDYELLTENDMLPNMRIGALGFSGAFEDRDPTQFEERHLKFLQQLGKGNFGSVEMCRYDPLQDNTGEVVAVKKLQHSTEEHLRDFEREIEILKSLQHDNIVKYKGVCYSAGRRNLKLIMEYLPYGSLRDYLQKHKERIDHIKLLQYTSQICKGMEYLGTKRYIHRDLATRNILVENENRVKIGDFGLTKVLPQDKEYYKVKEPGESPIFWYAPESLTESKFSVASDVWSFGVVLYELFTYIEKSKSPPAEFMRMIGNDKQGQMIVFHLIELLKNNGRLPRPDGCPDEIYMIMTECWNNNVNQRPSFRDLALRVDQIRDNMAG

In general, EC50 refers to the concentration giving half of the maximal effect. High values mean weaker potency, low ones greater potency. One may read the Ki as the equilibrium dissociation constant of an inhibitor or competing ligand from its target. On to `N#Cc1cccc(F)c1-c1cc(-n2ccc(N3CCCOCC3)n2)c2c(n1)CNC2=O` [I-83, 2-(4-(3-(1,4-oxazepan-4-yl)-1H-pyrazol-1-yl)-5-oxo-6,7-dihydro-5H-pyrrolo[3,4-b]pyridin-2-yl)-3-fluorobenzonitrile], for which the 50% effective concentration (EC50) in assay [1] (Homo sapiens, PBMC, 0.5 h) was 100 to 2000 nM; in assay [2], over 2000 nM. For the same molecule, the Ki lay within 0.1 to 10 nM on TYK2 and 10 to 100 nM at JAK2.
The matching figures for `N#Cc1cccc(F)c1-c1cc(-n2ccc(N3CCC[C@@H](O)C3)n2)c2c(n1)CNC2=O` [I-69, (R)-3-fluoro-2-(4-(3-(3-hydroxypiperidin-1-yl)-1H-pyrazol-1-yl)-5-oxo-6,7-dihydro-5H-pyrrolo[3,4-b]pyridin-2-yl)benzonitrile]: 100 to 2000 nM, 100 to 2000 nM, 0.1 to 10 nM and 10 to 100 nM.
The matching figures for `CC(C)c1ncn(-c2cc(-c3c(F)cccc3C#N)nc3c2C(=O)NC3)n1` [I-232, 3-fluoro-2-(4-(3-isopropyl-1H-1,2,4-triazol-1-yl)-5-oxo-6,7-dihydro-5H-pyrrolo[3,4-b]pyridin-2-yl)benzonitrile]: over 2000 nM, 100 to 2000 nM, at least 1000 nM and at least 1000 nM.
In the case of `CO[C@@H]1CN(c2ccn(-c3cc(-c4c(F)cccc4C#N)nc4c3C(=O)NC4)n2)CC[C@H]1O` [I-195, 3-fluoro-2-(4-(3-((3R,4R)-4-hydroxy-3-methoxypiperidin-1-yl)-1H-pyrazol-1-yl)-5-oxo-6,7-dihydro-5H-pyrrolo[3,4-b]pyridin-2-yl)benzonitrile], the EC50 in assay [1] (Homo sapiens, PBMC, 0.5 h) was 30 to 100 nM; in assay [2] it was 100 to 2000 nM. In addition, the Ki on TYK2 and on JAK2 was 0.1 to 10 nM each time.
For `[2H]C1([2H])NC(=O)c2c(-n3ccc(N4C([2H])([2H])C[C@](O)(C([2H])([2H])[2H])C4([2H])[2H])n3)cc(-c3c(F)cccc3C#N)nc21` [I-207, (R)-3-fluoro-2-(4-(3-(3-hydroxy-3-(methyl-d3)pyrrolidin-1-yl-2,2,5,5-d4)-1H-pyrazol-1-yl)-5-oxo-6,7-dihydro-5H-pyrrolo[3,4-b]pyridin-2-yl-7,7-d2)benzonitrile], the EC50 in assay [1] (Homo sapiens, PBMC, 0.5 h) fell in the range of 30 to 100 nM; in assay [2] it was 100 to 2000 nM. For the same molecule, the inhibition constant Ki on TYK2 was in the range of 0.1 to 10 nM; on JAK2, 10 to 100 nM.
The matching figures for `N#Cc1cccc(F)c1-c1cc(-n2ccc(N3CC[C@H](O)C3)n2)c2c(n1)CNC2=O` [I-79, (S)-3-fluoro-2-(4-(3-(3-hydroxypyrrolidin-1-yl)-1H-pyrazol-1-yl)-5-oxo-6,7-dihydro-5H-pyrrolo[3,4-b]pyridin-2-yl)benzonitrile]: 30 to 100 nM, 100 to 2000 nM, 0.1 to 10 nM and 10 to 100 nM.
The matching figures for `N#Cc1cccc(F)c1-c1cc(-n2ccc(N3CCCC(C#N)C3)n2)c2c(n1)CNC2=O` (stereo not drawn) [I-95, 1-(1-(2-(2-cyano-6-fluorophenyl)-5-oxo-6,7-dihydro-5H-pyrrolo[3,4-b]pyridin-4-yl)-1H-pyrazol-3-yl)piperidine-3-carbonitrile]: 30 to 100 nM, 100 to 2000 nM, 0.1 to 10 nM and 10 to 100 nM.
The matching figures for `CC(=O)Nc1cnn(-c2cc(-c3c(F)cccc3C#N)nc3c2C(=O)NC3)c1` [I-177, N-(1-(2-(2-cyano-6-fluorophenyl)-5-oxo-6,7-dihydro-5H-pyrrolo[3,4-b]pyridin-4-yl)-1H-pyrazol-4-yl)acetamide]: over 2000 nM, 100 to 2000 nM, at least 1000 nM and at least 1000 nM.
For the molecule `N#Cc1cccc(F)c1-c1cc(-n2ccc(N3CCC(O)C3)n2)c2c(n1)CNC2=O` (stereo not drawn) [I-76, 3-fluoro-2-(4-(3-(3-hydroxypyrrolidin-1-yl)-1H-pyrazol-1-yl)-5-oxo-6,7-dihydro-5H-pyrrolo[3,4-b]pyridin-2-yl)benzonitrile], the EC50 in assay [1] (Homo sapiens, PBMC, 0.5 h) was 30 to 100 nM; in assay [2], 100 to 2000 nM. Further, the Ki on TYK2 lay in the range of 0.009 to 0.1 nM; at JAK2 it was 0.1 to 10 nM.
As to `[2H]C1([2H])NC(=O)c2c(-n3ccc(N4C([2H])([2H])CC(O)(C([2H])([2H])[2H])C4([2H])[2H])n3)cc(-c3c(F)cccc3C#N)nc21` (stereo not drawn) [I-200, 3-fluoro-2-(4-(3-(3-hydroxy-3-(methyl-d3)pyrrolidin-1-yl-2,2,5,5-d4)-1H-pyrazol-1-yl)-5-oxo-6,7-dihydro-5H-pyrrolo[3,4-b]pyridin-2-yl-7,7-d2)benzonitrile], the EC50 is 30 to 100 nM in assay [1] (Homo sapiens, PBMC, 0.5 h) and 100 to 2000 nM in assay [2]. The Ki at TYK2 was 0.1 to 10 nM; at JAK2 it was 10 to 100 nM.
The matching figures for `CC(C)n1ccc(-c2cc(-c3c(F)cccc3C#N)nc3c2C(=O)NC3)n1` [I-57, 3-fluoro-2-(4-(1-isopropyl-1H-pyrazol-3-yl)-5-oxo-6,7-dihydro-5H-pyrrolo[3,4-b]pyridin-2-yl)benzonitrile]: 100 to 2000 nM, 100 to 2000 nM, 0.1 to 10 nM and 100 to 1000 nM.
With `N#Cc1cccc(F)c1-c1cc(-n2ccc(N3CC[C@@H](O)[C@@H](O)C3)n2)c2c(n1)CNC2=O` [I-137, 2-(4-(3-((3S,4R)-3,4-dihydroxypiperidin-1-yl)-1H-pyrazol-1-yl)-5-oxo-6,7-dihydro-5H-pyrrolo[3,4-b]pyridin-2-yl)-3-fluorobenzonitrile], the EC50 in assay [1] was 100 to 2000 nM; in assay [2] it was over 2000 nM. The Ki on TYK2 and on JAK2 was 0.1 to 10 nM in each case.
`N#Cc1cccc(F)c1-c1cc(-n2ccc(N3CCC[C@H](O)C3)n2)c2c(n1)CNC2=O` [I-70, (S)-3-fluoro-2-(4-(3-(3-hydroxypiperidin-1-yl)-1H-pyrazol-1-yl)-5-oxo-6,7-dihydro-5H-pyrrolo[3,4-b]pyridin-2-yl)benzonitrile]: the EC50 in assay [1] (Homo sapiens, PBMC, 0.5 h) lay within 100 to 2000 nM; in assay [2] it was 100 to 2000 nM. Also, the Ki on TYK2 and on JAK2 was 0.1 to 10 nM in each case.
As to `CCNC(=O)C1CCCN(c2ccn(-c3cc(-c4c(F)cccc4C#N)nc4c3C(=O)NC4)n2)C1` (stereo not drawn) [I-159, 1-(1-(2-(2-cyano-6-fluorophenyl)-5-oxo-6,7-dihydro-5H-pyrrolo[3,4-b]pyridin-4-yl)-1H-pyrazol-3-yl)-N-ethylpiperidine-3-carboxamide], the EC50 was 100 to 2000 nM in assay [1] (Homo sapiens, PBMC, 0.5 h) and over 2000 nM in assay [2]. The results for the Ki at TYK2 and on JAK2 were 0.1 to 10 nM and 10 to 100 nM, respectively.
For `N#Cc1cccc(F)c1-c1cc(-n2ccc(N3CCCC(O)C3)n2)c2c(n1)CNC2=O` (stereo not drawn) [I-65, 3-fluoro-2-(4-(3-(3-hydroxypiperidin-1-yl)-1H-pyrazol-1-yl)-5-oxo-6,7-dihydro-5H-pyrrolo[3,4-b]pyridin-2-yl)benzonitrile], the half-maximal effective concentration (EC50) lay in the range of 30 to 100 nM in assay [1] (Homo sapiens, PBMC, 0.5 h) and 100 to 2000 nM in assay [2]. For the same molecule, the figures for the Ki on TYK2 and at JAK2 were 0.1 to 10 nM and 10 to 100 nM, respectively.
Turning to `C[C@H]1[C@H](O)CCN1c1ccn(-c2cc(-c3c(F)cccc3C#N)nc3c2C(=O)NC3)n1` [I-150, 3-fluoro-2-(4-(3-((2S,3R)-3-hydroxy-2-methylpyrrolidin-1-yl)-1H-pyrazol-1-yl)-5-oxo-6,7-dihydro-5H-pyrrolo[3,4-b]pyridin-2-yl)benzonitrile], the EC50 in assay [1] (Homo sapiens, PBMC, 0.5 h) is 30 to 100 nM; in assay [2] it was over 2000 nM. Besides, the Ki was 0.009 to 0.1 nM at TYK2 and 0.1 to 10 nM at JAK2.
`C[C@@H]1CC(O)C[C@H](C)N1c1ccn(-c2cc(-c3c(F)cccc3C#N)nc3c2C(=O)NC3)n1` (stereo partly drawn) [I-107, 3-fluoro-2-(4-(3-((2S,6R)-4-hydroxy-2,6-dimethylpiperidin-1-yl)-1H-pyrazol-1-yl)-5-oxo-6,7-dihydro-5H-pyrrolo[3,4-b]pyridin-2-yl)benzonitrile]: the EC50 lay in the range of 100 to 2000 nM in assay [1] (Homo sapiens, PBMC, 0.5 h) and 100 to 2000 nM in assay [2]. Moreover, the Ki at TYK2 was 10 to 100 nM; at JAK2, 100 to 1000 nM.
Consider `C[C@H]1CC[C@H](O)CN1c1ccn(-c2cc(-c3c(F)cccc3C#N)nc3c2C(=O)NC3)n1` [I-112, 3-fluoro-2-(4-(3-((2S,5S)-5-hydroxy-2-methylpiperidin-1-yl)-1H-pyrazol-1-yl)-5-oxo-6,7-dihydro-5H-pyrrolo[3,4-b]pyridin-2-yl)benzonitrile], for which the EC50 in assay [1] (Homo sapiens, PBMC, 0.5 h) lay within 100 to 2000 nM; in assay [2], 100 to 2000 nM. Also, the results for the Ki on TYK2 and on JAK2 were 0.1 to 10 nM and 10 to 100 nM, respectively.

For the origin of these results see patent publication US10781204B2, “TYK2 inhibitors and uses thereof” (Nimbus Lakshmi, Inc., priority 2015, dated 2020).
